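A five-concentration, 48-hour dose response in 96-well plates underlies each endpoint, interpolated linearly between surrounding concentrations. Here, GI50 denotes the concentration required for 50% inhibition of growth.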 The source made the active and inactive calls. Cut-off read from the data, not from the text of the source: active = GI50 up to about 1.1 µM and inactive = higher.
Legend:
Experiment in all cases: inhibition of tumour cell growth, NCI panel, 48 h
SF-268 = tested on: SF-268
RPMI-8226 = tested on: RPMI-8226
KM12 = tested on: KM12
A498 = tested on: A498
UACC-257 = tested on: UACC-257
OVCAR-5 = tested on: OVCAR-5
COLO 205 = tested on: COLO 205
DMS-114 = tested on: DMS-114
HOP-92 = tested on: HOP-92
NCI-H460 = tested on: NCI-H460
DMS-273 = tested on: DMS-273
SK-MEL-28 = tested on: SK-MEL-28
UO-31 = tested on: UO-31
NCI-H522 = tested on: NCI-H522
ACHN = tested on: ACHN
HL-60 = tested on: HL-60
IGROV-1 = tested on: IGROV-1
SW-620 = tested on: SW-620
OVCAR-3 = tested on: OVCAR-3
SNB-19 = tested on: SNB-19

Measured: GI50

COc1ccc(C(O)/C(=N\NC(N)=S)c2nc3ccc([N+](=O)[O-])cc3nc2O)cc1OC (centres undefined)
inactive: SF-268 > 100 µM | RPMI-8226 > 100 µM | KM12 > 100 µM | A498 > 100 µM | UACC-257 64.3 µM | OVCAR-5 > 100 µM | COLO 205 > 100 µM | DMS-114 53.1 µM | HOP-92 > 100 µM | NCI-H460 > 100 µM | DMS-273 > 100 µM | SK-MEL-28 > 100 µM | UO-31 > 100 µM | NCI-H522 32.4 µM | ACHN > 100 µM | HL-60 > 100 µM | IGROV-1 > 100 µM | SW-620 > 100 µM

C/C(=C\c1ccccc1)C(=O)CCN1CCOCC1
inactive: OVCAR-3 19.3 µM | SF-268 32.1 µM | RPMI-8226 3.15 µM | KM12 14.9 µM | A498 > 56 µM | UACC-257 15.6 µM | OVCAR-5 18.9 µM | COLO 205 17.2 µM | DMS-114 18.7 µM | HOP-92 20.4 µM | NCI-H460 62.1 µM | DMS-273 19.7 µM | SK-MEL-28 19.4 µM | UO-31 20.8 µM | NCI-H522 7.94 µM | HL-60 33.7 µM | IGROV-1 27.4 µM | SW-620 16.5 µM | SNB-19 > 44.9 µM

C[C@]12CC[C@H]3[C@@H](CC=C4C[C@@H](O)CC[C@@]43C)[C@@H]1C/C(=C\c1ccc([N+](=O)[O-])cc1)[C@@H]2O
inactive: OVCAR-3 16.3 µM | SF-268 26.1 µM | RPMI-8226 7.48 µM | KM12 18.5 µM | A498 15.1 µM | UACC-257 16.3 µM | OVCAR-5 25.2 µM | COLO 205 15.1 µM | HOP-92 21.1 µM | NCI-H460 16.1 µM | SK-MEL-28 19.3 µM | UO-31 8.93 µM | NCI-H522 9.98 µM | ACHN 11.6 µM | HL-60 2.65 µM | IGROV-1 26 µM | SW-620 26.7 µM | SNB-19 16.9 µM

c1ccc(Nc2nnc(-c3nsc4ccccc34)o2)cc1
inactive: OVCAR-3 14 µM | SF-268 > 100 µM | RPMI-8226 > 100 µM | KM12 > 100 µM | UACC-257 > 100 µM | OVCAR-5 > 100 µM | COLO 205 > 100 µM | DMS-114 > 100 µM | HOP-92 19.2 µM | NCI-H460 62.1 µM | DMS-273 46.6 µM | SK-MEL-28 > 100 µM | UO-31 > 100 µM | ACHN 75.3 µM | HL-60 > 100 µM | IGROV-1 > 100 µM | SW-620 > 100 µM | SNB-19 37.8 µM

CSCSCC(CO)NC(=O)/C(C)=C\c1c(C)[nH]c(=O)[nH]c1=O (centres undefined)
inactive: OVCAR-3 > 250 µM | SF-268 > 250 µM | RPMI-8226 > 250 µM | KM12 200 µM | A498 > 250 µM | UACC-257 170 µM | OVCAR-5 207 µM | COLO 205 > 250 µM | DMS-114 > 250 µM | HOP-92 20.3 µM | NCI-H460 > 250 µM | DMS-273 > 250 µM | SK-MEL-28 > 250 µM | UO-31 > 250 µM | NCI-H522 > 250 µM | HL-60 > 250 µM | IGROV-1 > 250 µM | SW-620 237 µM | SNB-19 48.3 µM

COC1=C(OC)C(=O)c2cc(SC)c(=O)c(SC)cc2C1=O
inactive: OVCAR-3 8.93 µM | SF-268 12.8 µM | RPMI-8226 15.2 µM | KM12 96.4 µM | A498 24.5 µM | UACC-257 6.65 µM | COLO 205 > 100 µM | DMS-114 3.4 µM | HOP-92 17.7 µM | NCI-H460 45.5 µM | DMS-273 25.5 µM | SK-MEL-28 13.5 µM | UO-31 19.8 µM | NCI-H522 17.1 µM | ACHN 12.8 µM | HL-60 1.68 µM | IGROV-1 33.1 µM | SW-620 33.5 µM | SNB-19 22.6 µM

CC(=O)Oc1ccc(C2COc3cc(OC(C)=O)c(OC(C)=O)cc3C2)cc1 (centres undefined)
inactive: OVCAR-3 13.7 µM | SF-268 13.7 µM | RPMI-8226 14.9 µM | KM12 25 µM | A498 9.04 µM | UACC-257 17.7 µM | OVCAR-5 56.9 µM | COLO 205 17.9 µM | DMS-114 4.44 µM | HOP-92 3.88 µM | NCI-H460 17.9 µM | DMS-273 21.9 µM | SK-MEL-28 16.3 µM | UO-31 22.3 µM | NCI-H522 2.8 µM | HL-60 4.11 µM | IGROV-1 12.8 µM | SW-620 17.4 µM | SNB-19 32.2 µM

CCCCn1cc[n+](-c2nc3ccccc3n2C)c1
inactive: OVCAR-3 > 100 µM | SF-268 > 10 µM | RPMI-8226 > 100 µM | UACC-257 > 100 µM | OVCAR-5 > 100 µM | DMS-114 > 100 µM | NCI-H460 > 100 µM | DMS-273 > 100 µM | UO-31 > 100 µM | NCI-H522 > 100 µM | ACHN > 100 µM | HL-60 > 100 µM | IGROV-1 > 100 µM | SW-620 > 100 µM | SNB-19 > 100 µM

N#CCCN(c1ccc(/C=N/c2cccc([N+](=O)[O-])c2)cc1)S(=O)(=O)c1ccccc1
inactive: OVCAR-3 > 100 µM | SF-268 > 100 µM | RPMI-8226 > 100 µM | KM12 > 100 µM | A498 > 10 µM | UACC-257 > 100 µM | COLO 205 > 100 µM | DMS-114 > 100 µM | HOP-92 > 100 µM | DMS-273 > 100 µM | SK-MEL-28 > 100 µM | UO-31 36.3 µM | NCI-H522 > 100 µM | HL-60 > 100 µM | IGROV-1 > 100 µM | SW-620 > 100 µM | SNB-19 > 100 µM

CC(C)OP(=O)(OC(C)C)c1ncn(-c2ccc([N+](=O)[O-])cc2)n1
inactive: OVCAR-3 > 100 µM | SF-268 > 100 µM | RPMI-8226 > 100 µM | KM12 > 100 µM | A498 > 100 µM | UACC-257 > 100 µM | OVCAR-5 > 100 µM | COLO 205 > 100 µM | DMS-114 > 100 µM | HOP-92 > 100 µM | NCI-H460 > 100 µM | DMS-273 > 100 µM | SK-MEL-28 > 100 µM | UO-31 > 100 µM | NCI-H522 > 100 µM | ACHN > 100 µM | HL-60 > 100 µM | IGROV-1 > 100 µM | SW-620 > 100 µM | SNB-19 > 100 µM

ClCCCN1CCCCC1CCl (centres undefined)
inactive: OVCAR-3 > 100 µM | SF-268 53.2 µM | RPMI-8226 > 100 µM | KM12 > 100 µM | A498 > 100 µM | OVCAR-5 > 100 µM | COLO 205 > 100 µM | DMS-114 83 µM | HOP-92 > 100 µM | NCI-H460 10.2 µM | DMS-273 62.2 µM | SK-MEL-28 > 100 µM | UO-31 92.7 µM | NCI-H522 > 100 µM | ACHN 48.6 µM | HL-60 52.7 µM | IGROV-1 > 100 µM | SW-620 > 100 µM | SNB-19 > 100 µM

CCOC(=O)C1=C(c2ccccc2)N(C(C)=O)Cc2ccccc21
inactive: OVCAR-3 18.6 µM | SF-268 19 µM | RPMI-8226 13.5 µM | KM12 15 µM | UACC-257 16.9 µM | OVCAR-5 21.7 µM | COLO 205 15.9 µM | DMS-114 10.4 µM | HOP-92 3.1 µM | NCI-H460 14.3 µM | DMS-273 15.1 µM | SK-MEL-28 16.8 µM | UO-31 18.1 µM | NCI-H522 16.9 µM | ACHN 16.1 µM | HL-60 11 µM | IGROV-1 23.6 µM | SW-620 34.8 µM | SNB-19 44.6 µM

CN1CCc2[nH]c3ccccc3c2C1
inactive: OVCAR-3 > 100 µM | SF-268 > 100 µM | RPMI-8226 > 100 µM | KM12 > 100 µM | A498 > 100 µM | UACC-257 > 100 µM | OVCAR-5 > 100 µM | COLO 205 > 100 µM | DMS-114 > 100 µM | HOP-92 > 100 µM | NCI-H460 > 100 µM | DMS-273 > 100 µM | SK-MEL-28 > 100 µM | UO-31 > 100 µM | NCI-H522 > 100 µM | HL-60 87.9 µM | IGROV-1 > 100 µM | SW-620 > 100 µM | SNB-19 > 100 µM

From ChEMBL document CHEMBL1201862, “PubChem BioAssay data set” (2004)
